Read-outs that look alike come from different tables or passages of the source.
Biological target: T1, human PDE2A1 (Homo sapiens, UniProt O00408)
T1 construct: GST; purchased BPS Bioscience (San Diego, Calif.) 60020; host or cells: insect cells
Experiment: IMAP FP PDE assay, human PDE2A1
Type: biochemical
Summary of the method: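 FP (IMAP) read after 60 min room-temperature reaction of insect-cell GST-human PDE2A1 with 50 nM FAM-cAMP plus 1000 nM cGMP (pH 7.2 Tris, Mg2+, DTT). Compounds titrated 3-fold over ten points. Apparent Ki derived assuming KM of 10,000 nM; enzyme at 20% substrate turnover.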

[1] = Lab B, read-out: Human PDE2 Ki (nM) Lab B
[2] = Lab A, read-out: Human PDE2 Ki (nM) Lab A

T1 sequence (O00408 1-920 isoform O00408-2): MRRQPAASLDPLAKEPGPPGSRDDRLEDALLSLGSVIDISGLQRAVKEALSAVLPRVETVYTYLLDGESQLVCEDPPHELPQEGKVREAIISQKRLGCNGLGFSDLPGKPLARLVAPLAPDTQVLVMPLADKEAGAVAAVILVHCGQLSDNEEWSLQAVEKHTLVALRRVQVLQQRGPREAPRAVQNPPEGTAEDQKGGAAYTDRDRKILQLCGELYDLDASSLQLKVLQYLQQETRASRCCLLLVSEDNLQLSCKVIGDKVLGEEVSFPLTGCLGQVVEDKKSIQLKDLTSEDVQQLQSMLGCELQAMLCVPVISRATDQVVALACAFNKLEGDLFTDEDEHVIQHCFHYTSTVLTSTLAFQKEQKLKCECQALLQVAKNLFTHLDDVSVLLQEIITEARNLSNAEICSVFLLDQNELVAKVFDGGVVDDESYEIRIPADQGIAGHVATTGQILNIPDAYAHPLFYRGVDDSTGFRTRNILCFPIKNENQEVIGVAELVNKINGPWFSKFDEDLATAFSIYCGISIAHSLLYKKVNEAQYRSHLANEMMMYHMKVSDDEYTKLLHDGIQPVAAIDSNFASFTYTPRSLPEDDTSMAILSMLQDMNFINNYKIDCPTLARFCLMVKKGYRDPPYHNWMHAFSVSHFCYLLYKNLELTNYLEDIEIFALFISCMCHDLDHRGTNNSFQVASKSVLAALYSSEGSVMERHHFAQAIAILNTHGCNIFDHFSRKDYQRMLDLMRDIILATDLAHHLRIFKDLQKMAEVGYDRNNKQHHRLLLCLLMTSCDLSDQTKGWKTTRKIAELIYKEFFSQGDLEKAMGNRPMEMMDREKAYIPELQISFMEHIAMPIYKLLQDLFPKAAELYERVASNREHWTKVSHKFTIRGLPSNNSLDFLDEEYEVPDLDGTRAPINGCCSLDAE

| Compound | Ki [1] [nM] | Ki [2] [nM] |
| --- | --- | --- |
| Cc1nc2c(c(CO)nn2C(c2ccc(OC(F)(F)F)cc2)C2CC2)c(=O)[nH]1 (single isomer, unassigned) [Example 95, (S)- or (R)-1-(Cyclopropyl(4-(trifluoromethoxy)phenyl)methyl)-3-(hydroxymethyl)-6-methyl-1H-pyrazolo[3,4-d]pyrimidin-4(5H)-one] | 2 |  |
| Cc1nc2c(c(CO)nn2C(C)c2ccc(C(F)(F)F)c(F)c2)c(=O)[nH]1 (single isomer, unassigned) [Example 13, (S)- or (R)-1-(1-(3-Fluoro-4-(trifluoromethyl)phenyl)ethyl)-3-(hydroxymethyl)-6-methyl-1H-pyrazolo[3,4-d]pyrimidin-4(5H)-one] | 1.7 |  |
| COCc1nc2c(c(CF)nn2C(C)c2ccc(C(F)(F)F)cc2)c(=O)[nH]1 (centres unmarked) [Example 205, 3-(Fluoromethyl)-6-(methoxymethyl)-1-{1-[4-(trifluoromethyl)phenyl]ethyl}-1,5-dihydro-4H-pyrazolo[3,4-d]pyrimidin-4-one] | 3.4 |  |
| Cc1nc2c(c(CO)nn2[C@@H](C)c2ccc(OC(F)(F)F)cc2)c(=O)[nH]1 [Example 158, (S)-3-(Hydroxymethyl)-6-methyl-1-(1-(4-(trifluoromethoxy)phenyl)ethyl)-1H-pyrazolo[3,4-d]pyrimidin-4(5H)-one] | 3.1 |  |
| Cc1nn(C(C)c2ccc(C(F)(F)F)cc2)c2nc(-c3ccccn3)[nH]c(=O)c12 (centres unmarked) [Example 52, 3-Methyl-6-pyridin-2-yl-1-{1-[4-(trifluoromethyl)phenyl]ethyl}-1,5-dihydro-4H-pyrazolo[3,4-d]pyrimidin-4-one] |  | 18 |
| Cc1nc2c(c(CO)nn2C(c2ccc(C(F)(F)F)cc2)C(F)(F)F)c(=O)[nH]1 (centres unmarked) [Example 6, 3-(Hydroxymethyl)-6-methyl-1-(2,2,2-trifluoro-1-(4-(trifluoromethyl)phenyl)ethyl)-1H-pyrazolo[3,4-d]pyrimidin-4(5H)-one] | 3.1 |  |
| Cc1nc2c(c(CO)nn2[C@@H](C)c2ccc(C(C)(C)C)cc2)c(=O)[nH]1 [Example 157, (S)-1-(1-(4-tert-Butylphenyl)ethyl)-3-(hydroxymethyl)-6-methyl-1H-pyrazolo[3,4-d]pyrimidin-4(5H)-one] | 1.1 |  |
| Cc1nc2c(c(CO)nn2C(C)c2ccc(C(F)(F)F)cc2)c(=O)[nH]1 (single isomer, unassigned) [Example 27, (S)- or (R)-3-(Hydroxymethyl)-6-methyl-1-{1-[4-(trifluoromethyl)phenyl]ethyl]-1,5-dihydro-4H-pyrazolo[3,4-d]pyrimidin-4-one] | 3.4 | 1.4 |
| CCCc1nc2c(c(C)nn2C(C)c2ccc(C(F)(F)F)cc2)c(=O)[nH]1 (centres unmarked) [Example 41, 3-Methyl-6-propyl-1-{1-[4-(trifluoromethyl)phenyl]ethyl}-1,5-dihydro-4H-pyrazolo[3,4-d]pyrimidin-4-one] |  | 35 |
| Cc1nc2c(c(C(F)F)nn2C(C)c2ccc(C(F)(F)F)cc2)c(=O)[nH]1 (centres unmarked) [Example 166, 3-(Difluoromethyl)-6-methyl-1-{1-[4-(trifluoromethyl)phenyl]ethyl}-1,5-dihydro-4H-pyrazolo[3,4-d]pyrimidin-4-one] | 9.5 | ~5.9 |
| Cc1nc2c(c(CO)nn2C(c2ccc(C(F)(F)F)cc2)C(C)C)c(=O)[nH]1 (centres unmarked) [Example 5, 3-(Hydroxymethyl)-6-methyl-1-(2-methyl-1-(4-(trifluoromethyl)phenyl)propyl)-1H-pyrazolo[3,4-d]pyrimidin-4(5H)-one] | 0.74 | 0.56 |
| COc1ccc(Cc2nc3c(c(CF)nn3C(C)c3ccc(C(F)(F)F)cc3)c(=O)[nH]2)cc1OC (single isomer, unassigned) [Example 223, (S)- or (R)-6-(3,4-Dimethoxybenzyl)-3-(fluoromethyl)-1-(1-(4-(trifluoromethyl)phenyl)ethyl)-1,5-dihydro-4H-pyrazolo[3,4-d]pyrimidin-4-one] |  | 12 |
| CCc1nc2c(c(C)nn2C(C)c2ccc(C(F)(F)F)cc2)c(=O)[nH]1 (centres unmarked) [Example 38, 6-Ethyl-3-methyl-1-{1-[4-(trifluoromethyl)phenyl]ethyl}-1,5-dihydro-4H-pyrazolo[3,4-d]pyrimidin-4-one] |  | 28 |
| COc1ccc(Cc2nc3c(c(CF)nn3C(C)c3ccc(C(F)(F)F)cc3)c(=O)[nH]2)cc1OC (single isomer, unassigned) [Example 222, (R)- or (S)-6-(3,4-Dimethoxybenzyl)-3-(fluoromethyl)-1-(1-(4-(trifluoromethyl)phenyl)ethyl)-1,5-dihydro-4H-pyrazolo[3,4-d]pyrimidin-4-one] | 0.34 | < 5.1 |
| Cc1nn(C(C)c2ccc(C(F)(F)F)cc2)c2nc(CF)[nH]c(=O)c12 (centres unmarked) [Example 51, 6-(Fluoromethyl)-3-methyl-1-{1-[4-(trifluoromethyl)phenyl]ethyl}-1,5-dihydro-4H-pyrazolo[3,4-d]pyrimidin-4-one] |  | 50 |
| Cc1nc2c(c(C(C)O)nn2C(C)c2ccc(C(F)(F)F)cc2)c(=O)[nH]1 (centres unmarked) [Example 328, 3-(1-Hydroxyethyl)-6-methyl-1-{1-[4-(trifluoromethyl)phenyl]ethyl}-1,5-dihydro-4H-pyrazolo[3,4-d]pyrimidin-4-one] | 31 | ~11 |

| Compound | Ki [1] [nM] | Ki [2] [nM] |
| --- | --- | --- |
| Cc1nc2c(c(CF)nn2C(C)c2ccc(C(F)(F)F)cc2)c(=O)[nH]1 (centres unmarked) [Example 204, 3-(Fluoromethyl)-6-methyl-1-{1-[4-(trifluoromethyl)phenyl]ethyl}-1,5-dihydro-4H-pyrazolo[3,4-d]pyrimidin-4-one] |  | 2.7 |
| Cc1nn(C(C)c2ccc(C(F)(F)F)cc2)c2nc(C(C)C)[nH]c(=O)c12 (centres unmarked) [Example 43, 3-Methyl-6-(1-methylethyl)-1-{1-[4-(trifluoromethyl)phenyl]ethyl}-1,5-dihydro-4H-pyrazolo[3,4-d]pyrimidin-4-one] |  | 132 |
| Cc1nc2c(c(CO)nn2[C@H](c2ccc(C(C)(C)C)cc2)C(C)C)c(=O)[nH]1 [Example 159, (S)-1-(1-(4-tert-Butylphenyl)-2-methylpropyl)-3-(hydroxymethyl)-6-methyl-1H-pyrazolo[3,4-d]pyrimidin-4(5H)-one] | 2 |  |
| COc1ccc(Cc2nc3c(c(C(F)F)nn3C(C)c3ccc(C(F)(F)F)cc3)c(=O)[nH]2)cc1OC (single isomer, unassigned) [Example 197] | 0.23 |  |
| Cc1nn(C(C)c2ccc(C(F)(F)F)cc2)c2nc(-c3ccco3)[nH]c(=O)c12 (centres unmarked) [Example 49, 6-Furan-2-yl-3-methyl-1-{1-[4-(trifluoromethyl)phenyl]ethyl}-1,5-dihydro-4H-pyrazolo[3,4-d]pyrimidin-4-one] |  | 5.4 |
| Cc1nc2c(c(CO)nn2C(c2ccc(OC(F)(F)F)cc2)C2CC2)c(=O)[nH]1 (single isomer, unassigned) [Example 94, (R)- or (S)-1-(Cyclopropyl(4-(trifluoromethoxy)phenyl)methyl)-3-(hydroxymethyl)-6-methyl-1H-pyrazolo[3,4-d]pyrimidin-4(5H)-one] | 18 |  |
| Cc1nc2c(c(CF)nn2C(C)c2ccc(OC(F)(F)F)cc2)c(=O)[nH]1 (single isomer, unassigned) [Example 207, (S)- or (R)-3-(Fluoromethyl)-6-methyl-1-(1-(4-(trifluoromethoxy)phenyl)ethyl)-1H-pyrazolo[3,4-d]pyrimidin-4(5H)-one] | 1.1 |  |
| Cc1nc2c(c(CO)nn2C(C)c2ccc(C(F)(F)F)cc2)c(=O)[nH]1 (single isomer, unassigned) [Example 26, (R)- or (S)-3-(Hydroxymethyl)-6-methyl-1-{1-[4-(trifluoromethyl)phenyl]ethyl}-1,5-dihydro-4H-pyrazolo[3,4-d]pyrimidin-4-one] | 236 | 130 |
| Cc1ccc(C(C)n2nc(CO)c3c(=O)[nH]c(C)nc32)cc1 (centres unmarked) [Example 2, 3-(Hydroxymethyl)-6-methyl-1-(1-p-tolylethyl)-1H-pyrazolo[3,4-d]pyrimidin-4(5H)-one] | 28 | 18 |
| COCc1nc2c(c(C)nn2C(C)c2ccc(C(F)(F)F)cc2)c(=O)[nH]1 (centres unmarked) [Example 48, 6-(Methoxymethyl)-3-methyl-1-{1-[4-(trifluoromethyl)phenyl]ethyl}-1,5-dihydro-4H-pyrazolo[3,4-d]pyrimidin-4-one] |  | 21 |
| Cc1nn(C(C)c2ccc(C(F)(F)F)cc2)c2nc(Cc3cccc(O)c3)[nH]c(=O)c12 (centres unmarked) [Example 30, 6-(3-Hydroxybenzyl)-3-methyl-1-(1-(4-(trifluoromethyl)phenyl)ethyl)-1H-pyrazolo[3,4-d]pyrimidin-4(5H)-one] | 12 | 4.6 |
| Cc1nc2c(c(CF)nn2C(c2ccc(C(F)(F)F)cc2)C2CC2)c(=O)[nH]1 (centres unmarked) [Example 231, 1-(cyclopropyl(4-(trifluoromethyl)phenyl)methyl)-3-(fluoromethyl)-6-methyl-1H-pyrazolo[3,4-d]pyrimidin-4(5H)-one] | 0.97 | 0.39 |
| Cc1nc2c(c(C)nn2C(C)c2ccc(C(F)(F)F)cc2)c(=O)[nH]1 (single isomer, unassigned) [Example 37] |  | 23 |
| Cc1nc2c(c(CF)nn2C(C)c2ccc(OC(F)(F)F)c(F)c2)c(=O)[nH]1 (single isomer, unassigned) [Example 216, (R)- or (S)-1-(1-(3-Fluoro-4-(trifluoromethoxy)phenyl)ethyl)-3-(fluoromethyl)-6-methyl-1H-pyrazolo[3,4-d]pyrimidin-4(5H)-one] | 36 |  |
| Cc1nc2c(c(C(C)(C)O)nn2C(C)c2ccc(C(F)(F)F)cc2)c(=O)[nH]1 (centres unmarked) [Example 326, 3-(1-Hydroxy-1-methylethyl)-6-methyl-1-{1-[4-(trifluoromethyl)phenyl]ethyl}-1,5-dihydro-4H-pyrazolo[3,4-d]pyrimidin-4-one] |  | 70 |
| Cc1nn(C(C)c2ccc(C(F)(F)F)cc2)c2nc(C3CC3)[nH]c(=O)c12 (centres unmarked) [Example 42, 6-Cyclopropyl-3-methyl-1-{1-[4-(trifluoromethyl)phenyl]ethyl}-1,5-dihydro-4H-pyrazolo[3,4-d]pyrimidin-4-one] |  | 40 |

Source: US10160762B2, “6-alkyl dihydropyrazolopyrimidinone compounds as PDE2 inhibitors” (Merck Sharp & Dohme Corp., priority 2015, dated 2018)
